From publication PMC11249953, “c-KIT inhibitors reduce pathology and improve behavior in the Tg(SwDI) model of Alzheimer’s disease” (Life Science Alliance, 2024)
“And” between values parts separate entries of the source, which are not always exact repeats. Equal entries are not always repeated.

Legend:
CSF1R = target: T1, CSF1R (Homo sapiens, UniProt P07333); assay: KINOMEscan competition binding, CSF1R; conditions: 10 µM compound
T1 construct: DNA label for qPCR read-out (T7 phage fusion or DNA tag); purchased Eurofins DiscoverX Corporation; host or cells: T7 phage in E. coli (BL21-derived) or HEK-293
Method: (§1) The KINOMEscan screening platform (Eurofins DiscoverX Corporation) was performed using active site-directed competition binding assay to quantitatively measure interactions between BK40143 and BK40197 and more than 450 human kinases and disease relevant mutant variants. […] Screening “hits” are identified by measuring the amount of kinase captured in test (BK40143 and BK40197) versus control samples by using a quantitative and ultra-sensitive qRT-PCR method that detects the associated DNA label. BK40143 and BK40197 were screened at 10 µM concentration, and results for primary screen binding interactions were reported as “% Ctrl” (POC), where lower numbers indicate stronger hits and calculated as follows: [test compound signal−positive control signal/negative control signal−positive control signal]×100
(§2) negative control = DMSO (100% Ctrl)
(§3) positive control = control compound (0% Ctrl)
(§4) Based on screening data from of profiled compounds, a proportional relationship between primary screening results and corresponding compound/target affinities can be described as binding constants (Kd values) for the indicated ranges of POC values with tighter binding (higher affinity) interactions associated with lower POC values and weaker binding (lower affinity) associated with higher POC values. Briefly, kinase-tagged T7 phage strains were grown in parallel in 24-well blocks in an E. coli host derived from the BL21 strain. E. coli were grown to log-phase and infected with T7 phage from a frozen stock (multiplicity of infection = 0.4) and incubated with shaking at 32°C until lysis (90–150 min). The lysates were centrifuged (6,000g) and filtered (0.2 μm) to remove cell debris. The remaining kinases were produced in HEK-293 cells and subsequently tagged with DNA for qRT-PCR detection. Streptavidin-coated magnetic beads were treated with biotinylated small molecule ligands for 30 min at RT to generate affinity resins for kinase assays. The liganded beads were blocked with excess biotin and washed with blocking buffer (1% BSA, 0.05% Tween 20, 1 mM DTT; SeaBlock [Pierce]) to remove unbound ligand and to reduce non-specific phage binding. Binding reactions were assembled by combining kinases, liganded affinity beads, and test compounds in 1x binding buffer (20% 0.17x PBS, 0.05% Tween 20, 6 mM DTT; SeaBlock). Test compounds were prepared as 100x stocks in 100% DMSO and directly diluted into the assay. All reactions were performed in polypropylene 384-well plates in a final volume of 0.02 ml. The assay plates were incubated at RT with shaking for 1 h and the affinity beads were washed with wash buffer (1x PBS, 0.05% Tween 20). […] The kinase concentration in the eluates was measured by qRT-PCR.

PIKFYVE = target: T2, PIKFYVE (Homo sapiens, UniProt Q9Y2I7); assay: KINOMEscan competition binding, PIKFYVE; conditions: 10 µM compound
T2 construct: DNA label for qPCR read-out (T7 phage fusion or DNA tag); purchased Eurofins DiscoverX Corporation; host or cells: T7 phage in E. coli (BL21-derived) or HEK-293
Method: as §1, §2, §3, §4

mice = assay: Elevated plus maze, source data sheets EPM (mouse line not given); type: in vivo; conditions: for EPM Trial 1 Closed Entries / EPM Trial 1 Open Entries / EPM Trial 2 Closed Entries / EPM Trial 2 Open Entries / EPM Trial 2 Time Closed / EPM Trial 1 Time Closed / EPM Trial 1 Time Open / EPM Trial 2 Time Open / EPM Totals Closed Entries / EPM Totals Open Entries / EPM Totals Time Closed / EPM Totals Time Open: individual mice; for EPM Trial 2 Time Closed / EPM Totals Time Closed / EPM Totals Time Open / Time Open: in s (unit assumed); for EPM Trial 1 Time Closed / EPM Trial 1 Time Open / EPM Trial 2 Time Open / Time Closed / Time Closed AVG / Time Open AVG: in s; for EPM Totals Closed Entries / EPM Totals Open Entries / EPM Totals Time Closed / EPM Totals Time Open: sum of trials 1 and 2; for Closed Entries AVG / Open Entries AVG / Time Closed AVG / Time Open AVG: group average
Method: The elevated plus maze was performed using a standard set up, with two enclosed arms and two open arms. Mice were placed at the intersection of the open and closed arms and allowed to freely explore for 5 min, two times. Time spent in the open and closed arms and number of entries into the open and closed arms were recorded.

ULK3 = target: T3, ULK3 (Homo sapiens, UniProt Q6PHR2); assay: KINOMEscan competition binding, ULK3; conditions: 10 µM compound
T3 construct: DNA label for qPCR read-out (T7 phage fusion or DNA tag); purchased Eurofins DiscoverX Corporation; host or cells: T7 phage in E. coli (BL21-derived) or HEK-293
T3 sequence (Q6PHR2 1-472): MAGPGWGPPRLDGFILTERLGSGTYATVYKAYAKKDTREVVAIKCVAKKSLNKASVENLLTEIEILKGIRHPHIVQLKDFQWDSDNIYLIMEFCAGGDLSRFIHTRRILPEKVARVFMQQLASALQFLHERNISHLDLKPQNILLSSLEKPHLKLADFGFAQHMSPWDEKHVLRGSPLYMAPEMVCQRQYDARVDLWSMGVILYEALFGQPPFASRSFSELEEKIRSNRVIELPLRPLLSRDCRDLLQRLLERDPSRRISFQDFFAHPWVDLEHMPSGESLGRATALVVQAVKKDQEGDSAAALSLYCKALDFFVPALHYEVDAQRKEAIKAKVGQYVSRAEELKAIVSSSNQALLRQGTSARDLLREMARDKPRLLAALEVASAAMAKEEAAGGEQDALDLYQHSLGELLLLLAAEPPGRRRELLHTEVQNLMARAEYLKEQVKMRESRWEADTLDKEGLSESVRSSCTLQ
Method: as §1, §2, §3, §4

[1] = 2.5mg/kg, listed as 143, female mice
[2] = 2.5mg/kg, listed as 143, male mice
[3] = 5.0mg/kg, listed as 143, female mice
[4] = 5.0mg/kg, listed as 143, male mice
[5] = Totals (Trial 1 + Trial 2), individual animals, listed as 143
[6] = Trial 1, individual animals, listed as 143
[7] = Trial 2, individual animals, listed as 143

T2 sequence (Q9Y2I7 whole entry, the tested form may be a part): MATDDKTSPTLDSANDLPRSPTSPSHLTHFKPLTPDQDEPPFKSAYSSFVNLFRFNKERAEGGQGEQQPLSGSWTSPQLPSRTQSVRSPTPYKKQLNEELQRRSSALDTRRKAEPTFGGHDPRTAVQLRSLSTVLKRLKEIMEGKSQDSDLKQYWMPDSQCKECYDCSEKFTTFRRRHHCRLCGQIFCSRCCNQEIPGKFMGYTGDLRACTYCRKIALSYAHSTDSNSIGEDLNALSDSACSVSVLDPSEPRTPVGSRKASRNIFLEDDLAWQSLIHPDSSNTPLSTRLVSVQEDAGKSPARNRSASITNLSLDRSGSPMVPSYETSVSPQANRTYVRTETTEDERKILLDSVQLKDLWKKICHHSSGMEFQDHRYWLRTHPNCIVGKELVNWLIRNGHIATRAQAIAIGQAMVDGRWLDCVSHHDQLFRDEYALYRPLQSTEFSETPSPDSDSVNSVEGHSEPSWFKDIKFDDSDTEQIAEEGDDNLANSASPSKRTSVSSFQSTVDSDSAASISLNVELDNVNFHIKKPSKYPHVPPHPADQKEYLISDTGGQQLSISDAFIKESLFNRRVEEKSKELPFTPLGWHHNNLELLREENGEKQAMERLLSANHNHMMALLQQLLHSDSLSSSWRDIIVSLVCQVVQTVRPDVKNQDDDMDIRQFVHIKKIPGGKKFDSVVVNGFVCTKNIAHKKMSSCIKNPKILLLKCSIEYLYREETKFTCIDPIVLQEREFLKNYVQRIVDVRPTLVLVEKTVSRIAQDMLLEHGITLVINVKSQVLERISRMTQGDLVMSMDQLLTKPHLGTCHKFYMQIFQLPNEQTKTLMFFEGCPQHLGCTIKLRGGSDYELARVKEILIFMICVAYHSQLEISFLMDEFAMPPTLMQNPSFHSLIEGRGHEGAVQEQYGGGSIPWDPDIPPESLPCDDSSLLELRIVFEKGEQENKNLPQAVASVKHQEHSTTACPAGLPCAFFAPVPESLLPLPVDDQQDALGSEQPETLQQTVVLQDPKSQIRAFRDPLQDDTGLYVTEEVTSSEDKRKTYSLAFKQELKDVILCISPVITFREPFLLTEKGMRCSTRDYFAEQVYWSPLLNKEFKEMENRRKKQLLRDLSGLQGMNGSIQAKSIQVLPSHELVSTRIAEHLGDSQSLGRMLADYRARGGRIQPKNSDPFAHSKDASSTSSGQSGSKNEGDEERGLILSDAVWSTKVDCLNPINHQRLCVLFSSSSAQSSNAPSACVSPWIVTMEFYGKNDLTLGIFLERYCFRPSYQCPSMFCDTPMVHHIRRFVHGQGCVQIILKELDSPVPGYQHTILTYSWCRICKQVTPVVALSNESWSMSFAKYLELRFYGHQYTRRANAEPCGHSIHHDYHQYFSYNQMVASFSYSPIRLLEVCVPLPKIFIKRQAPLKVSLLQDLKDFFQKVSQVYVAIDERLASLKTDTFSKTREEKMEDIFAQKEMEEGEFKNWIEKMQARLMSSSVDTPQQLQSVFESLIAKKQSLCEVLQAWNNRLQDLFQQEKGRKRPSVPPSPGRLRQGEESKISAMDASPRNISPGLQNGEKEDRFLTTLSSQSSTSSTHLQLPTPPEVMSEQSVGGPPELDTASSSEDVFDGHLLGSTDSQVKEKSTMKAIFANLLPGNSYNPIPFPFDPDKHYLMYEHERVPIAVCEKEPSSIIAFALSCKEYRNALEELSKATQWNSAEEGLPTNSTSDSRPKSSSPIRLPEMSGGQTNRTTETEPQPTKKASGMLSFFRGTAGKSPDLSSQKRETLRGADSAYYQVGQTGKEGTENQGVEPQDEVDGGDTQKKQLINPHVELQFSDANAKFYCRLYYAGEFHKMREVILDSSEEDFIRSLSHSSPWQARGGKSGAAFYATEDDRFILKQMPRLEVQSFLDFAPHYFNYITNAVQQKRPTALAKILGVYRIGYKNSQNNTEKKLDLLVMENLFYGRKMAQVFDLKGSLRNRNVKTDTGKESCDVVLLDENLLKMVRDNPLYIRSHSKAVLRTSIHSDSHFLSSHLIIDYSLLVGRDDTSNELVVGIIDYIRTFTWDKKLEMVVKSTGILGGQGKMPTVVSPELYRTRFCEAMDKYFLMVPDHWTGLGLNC
T1 sequence (P07333 20-972): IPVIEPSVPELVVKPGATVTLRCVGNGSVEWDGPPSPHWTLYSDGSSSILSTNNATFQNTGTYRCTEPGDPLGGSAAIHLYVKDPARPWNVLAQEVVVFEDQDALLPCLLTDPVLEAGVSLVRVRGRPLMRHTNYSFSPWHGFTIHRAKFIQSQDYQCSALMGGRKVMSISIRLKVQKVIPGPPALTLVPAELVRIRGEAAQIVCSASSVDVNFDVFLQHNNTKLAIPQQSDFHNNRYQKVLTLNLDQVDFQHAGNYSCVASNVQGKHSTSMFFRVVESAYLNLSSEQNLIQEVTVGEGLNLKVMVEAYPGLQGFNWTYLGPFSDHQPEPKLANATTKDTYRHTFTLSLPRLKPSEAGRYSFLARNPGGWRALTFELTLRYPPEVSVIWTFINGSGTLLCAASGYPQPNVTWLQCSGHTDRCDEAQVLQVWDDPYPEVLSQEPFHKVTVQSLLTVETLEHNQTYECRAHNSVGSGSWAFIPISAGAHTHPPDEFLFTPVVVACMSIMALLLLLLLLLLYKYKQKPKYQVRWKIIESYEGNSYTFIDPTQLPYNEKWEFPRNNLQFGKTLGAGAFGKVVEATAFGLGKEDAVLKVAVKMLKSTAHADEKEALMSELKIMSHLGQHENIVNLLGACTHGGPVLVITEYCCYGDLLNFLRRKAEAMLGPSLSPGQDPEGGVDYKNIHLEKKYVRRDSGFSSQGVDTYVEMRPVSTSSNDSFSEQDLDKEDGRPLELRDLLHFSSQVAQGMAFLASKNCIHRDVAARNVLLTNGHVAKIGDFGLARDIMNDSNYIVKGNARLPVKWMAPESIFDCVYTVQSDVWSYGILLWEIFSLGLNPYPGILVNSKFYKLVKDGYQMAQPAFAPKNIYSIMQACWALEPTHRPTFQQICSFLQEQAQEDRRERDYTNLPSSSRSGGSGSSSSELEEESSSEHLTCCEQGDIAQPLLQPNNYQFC

Question: What does the source list for `Cc1cccc(-c2cc3nccc(Nc4ccccc4)c3s2)c1` [BK40143]?
Answer: inhibition at 10 µM (CSF1R): 62%; remaining binding at 10 µM (CSF1R; lower = stronger binding, read-out: CSF1R %Ctrl @ 10000nM): 38%; inhibition at 10 µM (PIKFYVE): 32%; remaining binding at 10 µM (PIKFYVE; lower = stronger binding, read-out: PIKFYVE %Ctrl @ 10000nM (POC)): 68%; EPM Trial 1 Closed Entries (mice; [1]): 7 and 2 and 1 and 3 and 5; EPM Trial 1 Open Entries (mice; [1]): 6 and 2 and 1 and 5 and 3; EPM Trial 2 Closed Entries (mice; [1]): 2 and 8 and 1 and 5; EPM Trial 2 Open Entries (mice; [1]): 1 and 6 and 0 and 4; EPM Trial 2 Time Closed (mice; [1]): 296 and 240 and 300 and 257 and 277; EPM Trial 2 Time Closed (mice; [2]): 251; EPM Trial 1 Time Closed (mice; [1]): 280 and 287 and 293 and 268 and 258 and 222; EPM Trial 1 Time Open (mice; [1]): 20 and 13 and 7 and 32 and 42 and 78; EPM Trial 2 Time Open (mice; [1]): 4 and 60 and 0 and 43 and 23; EPM Trial 1 Time Closed (mice; [2]): 255; EPM Trial 1 Time Open (mice; [2]): 45; EPM Trial 2 Time Open (mice; [2]): 49; EPM Trial 1 Closed Entries (mice; [2]): 10; EPM Trial 1 Open Entries (mice; [2]): 10; EPM Trial 2 Closed Entries (mice; [2]): 6; EPM Trial 2 Open Entries (mice; [2]): 8; EPM Totals Closed Entries (mice; [1]): 9 and 10 and 2 and 3 and 8 and 11; EPM Totals Open Entries (mice; [1]): 7 and 8 and 1 and 5 and 10; EPM Totals Time Closed (mice; [1]): 576 and 527 and 593 and 568 and 515 and 499; EPM Totals Time Open (mice; [1]): 24 and 73 and 7 and 32 and 85 and 101; EPM Totals Time Closed (mice; [2]): 506; EPM Totals Time Open (mice; [2]): 94; EPM Totals Closed Entries (mice; [2]): 16; EPM Totals Open Entries (mice; [2]): 18; EPM Trial 1 Closed Entries (mice; [3]): 2 and 3 and 5 and 4; EPM Trial 1 Open Entries (mice; [3]): 1 and 5 and 4; EPM Trial 2 Closed Entries (mice; [3]): 1 and 6 and 13; EPM Trial 2 Open Entries (mice; [3]): 0 and 6 and 1 and 7; EPM Trial 2 Time Closed (mice; [3]): 300 and 219 and 298 and 244; EPM Trial 2 Time Closed (mice; [4]): 237 and 280 and 238; EPM Trial 1 Time Closed (mice; [3]): 297 and 266 and 284 and 290 and 268 and 259; EPM Trial 1 Time Open (mice; [3]): 3 and 34 and 16 and 10 and 32 and 41; EPM Trial 2 Time Open (mice; [3]): 0 and 81 and 2 and 56; EPM Trial 1 Time Closed (mice; [4]): 300 and 261 and 228 and 166; EPM Trial 1 Time Open (mice; [4]): 0 and 39 and 72 and 134; EPM Trial 2 Time Open (mice; [4]): 63 and 20 and 62; EPM Trial 1 Closed Entries (mice; [4]): 1 and 6 and 9; EPM Trial 1 Open Entries (mice; [4]): 0 and 6 and 9; EPM Trial 2 Closed Entries (mice; [4]): 7 and 8; EPM Trial 2 Open Entries (mice; [4]): 3 and 8; EPM Totals Closed Entries (mice; [3]): 3 and 9 and 6 and 17; EPM Totals Open Entries (mice; [3]): 1 and 11 and 4 and 5; EPM Totals Time Closed (mice; [3]): 597 and 485 and 584 and 590 and 566 and 503; EPM Totals Time Open (mice; [3]): 3 and 115 and 16 and 10 and 34 and 97; EPM Totals Time Closed (mice; [4]): 600 and 498 and 508 and 404; EPM Totals Time Open (mice; [4]): 0 and 102 and 92 and 196; EPM Totals Closed Entries (mice; [4]): 2 and 11 and 13; EPM Totals Open Entries (mice; [4]): 0 and 9 and 17; Closed Entries (mice; [5]): 15 and 5 and 8 and 6 and 9 and 14 and 11; Open Entries (mice; [5]): 10 and 7 and 8 and 6 and 12 and 17; Time Closed (mice; [5]): 435 and 498 and 481 and 538 and 465 and 421 and 544 and 262 and 497 and 529; Time Open (mice; [5]): 165 and 102 and 119 and 62 and 135 and 179 and 56 and 338 and 103 and 71; Closed Entries AVG (mice; Totals): 11.2; Open Entries AVG (mice; Totals): 9.1; Time Closed AVG (mice; Totals): 467; Time Open AVG (mice; Totals): 133; Closed Entries AVG (mice; Trial 1): 6.6; Open Entries AVG (mice; Trial 1): 5.8; Time Closed AVG (mice; Trial 1): 206.8; Time Open AVG (mice; Trial 1): 93.2; Closed Entries (mice; [6]): 9 and 2 and 6 and 3 and 5 and 8 and 10 and 7; Open Entries (mice; [6]): 7 and 3 and 6 and 5 and 4 and 9; Time Closed (mice; [6]): 160 and 258 and 206 and 186 and 167 and 254 and 112 and 227 and 240; Time Open (mice; [6]): 140 and 42 and 94 and 114 and 133 and 46 and 188 and 73 and 60; Closed Entries AVG (mice; Trial 2): 4.6; Open Entries AVG (mice; Trial 2): 3.3; Time Closed AVG (mice; Trial 2): 260.2; Time Open AVG (mice; Trial 2): 39.8; Closed Entries (mice; [7]): 6 and 3 and 2 and 4 and 7; Open Entries (mice; [7]): 3 and 4 and 2 and 5 and 1 and 8; Time Closed (mice; [7]): 275 and 240 and 280 and 279 and 254 and 290 and 150 and 270 and 289; Time Open (mice; [7]): 25 and 60 and 20 and 21 and 46 and 10 and 150 and 30 and 11; Time/Entry (mice; total Time Open per total Open Entries, individual animals, listed as 143): 16.5 and 14.5714 and 14.875 and 8.857 and 22.5 and 14.9167 and 9.333 and 19.8824 and 10.3 and 8.875; inhibition at 10 µM (ULK3): 90.2%; remaining binding at 10 µM (ULK3; lower = stronger binding, read-out: ULK3 %Ctrl @ 10000nM (POC)): 9.8%
